Assay results reported in US4681872A (priority 1985, dated 1987).
≈ marks a conversion by molar mass, not a printed value. Where two headings read alike, the source gives them in different places.

Experiments:
[1] = test system: Strep. pneumoniae 78-008107; assay: antimicrobial spectrum, agar dilution MIC
[2] = test system: Staph. aureus; assay: acute mouse protection test; format: in vivo, Swiss albino mice; details: for ED50: Staphylococcus aureus, 168 h
[3] = test system: Staph. aureus A-5278; assay: antimicrobial spectrum, agar dilution MIC
[4] = test system: Strep. pneumoniae CMX 635; assay: antimicrobial spectrum, agar dilution MIC; format: cell-based; details: 35°-37° C., 20-24 hours
[5] = test system: Staph. aureus 642A; assay: antimicrobial spectrum, agar dilution MIC; format: cell-based; details: BHI agar, 35°-37° C., 20-24 hours
[6] = test system: Staph. aureus CMX 730A; assay: antimicrobial spectrum, agar dilution MIC; format: cell-based; details: BHI agar, 35°-37° C., 20-24 hours
[7] = test system: Pseudomonas aeruginosa BMH10; assay: antimicrobial spectrum, agar dilution MIC; details: BHI agar, 35°-37° C., 20-24 hours
[8] = test system: Ent. aerogenes ATCC 10348; assay: antimicrobial spectrum, agar dilution MIC
[9] = test system: Staph. aureus CYR 1150; assay: antimicrobial spectrum, agar dilution MIC; format: cell-based; details: 35°-37° C., 20-24 hours
[10] = test system: Veillonella parvula ATCC 10790; assay: antimicrobial spectrum, agar dilution MIC
[11] = test system: Staph. epidermidis CMX 729h; assay: antimicrobial spectrum, agar dilution MIC
[12] = test system: Enterococcus GYR 1167; assay: antimicrobial spectrum, agar dilution MIC
[13] = test system: Strep. bovis A5169; assay: antimicrobial spectrum, agar dilution MIC; format: cell-based; details: BHI agar, 35°-37° C., 20-24 hours
[14] = test system: Bact. thetaiotamicron 106; assay: antimicrobial spectrum, agar dilution MIC
[15] = test system: Enterococcus GYR 1164; assay: antimicrobial spectrum, agar dilution MIC
[16] = test system: Enterococcus GYR 1166; assay: microbe, parasite or virus in culture; format: cell-based
[17] = beagle dogs, oral, 10.0 mg/kg, buffered solution of the lactobionate salt in water; in comparison to erythromycin A
[18] = test system: Staph. aureus NCTC 10649; assay: antimicrobial spectrum, agar dilution MIC; format: cell-based; details: 35°-37° C., 20-24 hours
[19] = test system: Fusobacterium SP GS-10; assay: antimicrobial spectrum, agar dilution MIC
[20] = test system: Bact. fragilis SFM2906A; assay: antimicrobial spectrum, agar dilution MIC
[21] = test system: Pep. magnus ATCC 29328; assay: antimicrobial spectrum, agar dilution MIC; format: cell-based; details: 35°-37° C., 20-24 hours
[22] = test system: Staph. aureus ATCC 6538P; assay: antimicrobial spectrum, agar dilution MIC
[23] = test system: Bact. fragilis SFM2975-7; assay: antimicrobial spectrum, agar dilution MIC; format: cell-based; details: 35°-37° C., 20-24 hours
[24] = test system: Enterococcus CMX 729G; assay: antimicrobial spectrum, agar dilution MIC
[25] = test system: Pseudomonas aeruginosa K799/61; assay: antimicrobial spectrum, agar dilution MIC
[26] = test system: Peptostrep. anaerobius ATCC 27337; assay: antimicrobial spectrum, agar dilution MIC
[27] = test system: Staph. saprophyticus ATCC 15305; assay: antimicrobial spectrum, agar dilution MIC; format: cell-based; details: 35°-37° C., 20-24 hours
[28] = test system: Micrococcus luteus 4698; assay: antimicrobial spectrum, agar dilution MIC; details: BHI agar, 35°-37° C., 20-24 hours
[29] = test system: Bact. SP SFM2975-2; assay: antimicrobial spectrum, agar dilution MIC
[30] = test system: Strep. pyogenes C203; assay: antimicrobial spectrum, agar dilution MIC; format: cell-based; details: BHI agar, 35°-37° C., 20-24 hours
[31] = test system: Bact. thetaiotamicron 3304; assay: antimicrobial spectrum, agar dilution MIC; format: cell-based; details: BHI agar, 35°-37° C., 20-24 hours
[32] = test system: Cl. perfringens SFBC 2026; assay: microbe, parasite or virus in culture; format: cell-based
[33] = test system: Pseudomonas cepacia 2961; assay: antimicrobial spectrum, agar dilution MIC; details: BHI agar, 35°-37° C., 20-24 hours
[34] = test system: Acinetobacter SP CMX 669; assay: antimicrobial spectrum, agar dilution MIC

## CCC1OC(=O)C(C)C(OC2CC(C)(OC)CC(C)O2)C(C)C(OC2OC(C)CC(N(C)C)C2O)C(C)(O)CC(C)C(=O)C(C)C2OC(=O)OC12C (stereo not shown) [4"-deoxyerythromycin A 11,12-carbonate]
[1]; Strep. pneumoniae 78-008107, BHI agar, 35°-37° C., 20-24 hours
  MIC: 32 µg/mL (≈ 43 µM)
[2]; Staph. aureus, mice, oral, dosed 1 and 5 hours post-infection, observed 7 days
  ED-50: 31.4 mg/kg
[2]; Staph. aureus, mice, subcutaneous, dosed 1 and 5 hours post-infection, observed 7 days
  ED-50: 36.3 mg/kg
[3]; Staph. aureus A-5278, BHI agar, 35°-37° C., 20-24 hours
  MIC: 128 µg/mL (≈ 172 µM)
[4]; BHI agar
  MIC: 8 ng/mL (≈ 0.0108 µM)
[5]
  MIC: .06 µg/mL (≈ 0.0807 µM)
[6]
  MIC: .03 µg/mL (≈ 0.0403 µM)
[7]
  MIC: 50 µg/mL (≈ 67.2 µM)
[8]; Ent. aerogenes ATCC 10348, BHI agar, 35°-37° C., 20-24 hours
  MIC: 50 µg/mL (≈ 67.2 µM)
[9]; BHI agar
  MIC: .03 µg/mL (≈ 0.0403 µM)
[10]; Veillonella parvula ATCC 10790, BHI agar, 35°-37° C., 20-24 hours
  MIC: 3.1 µg/mL (≈ 4.17 µM)
[11]; Staph. epidermidis CMX 729h, BHI agar, 35°-37° C., 20-24 hours
  MIC: 128 µg/mL (≈ 172 µM)
[12]; Enterococcus GYR 1167, BHI agar, 35°-37° C., 20-24 hours
  MIC: .5 µg/mL (≈ 0.672 µM)
[13]
  MIC: .005 µg/mL (≈ 0.00672 µM)
[14]; Bact. thetaiotamicron 106, BHI agar, 35°-37° C., 20-24 hours
  MIC: 3.1 µg/mL (≈ 4.17 µM)
[15]; Enterococcus GYR 1164, BHI agar, 35°-37° C., 20-24 hours
  MIC: .12 µg/mL (≈ 0.161 µM)
[16]; Enterococcus GYR 1166, BHI agar, 35°-37° C., 20-24 hours
  MIC: .12 µg/mL (≈ 0.161 µM)
[17]
  half life: substantially longer half life
  peak blood level: markedly higher peak blood level
[18]; BHI agar
  MIC: .06 µg/mL (≈ 0.0807 µM)
[19]; Fusobacterium SP GS-10, BHI agar, 35°-37° C., 20-24 hours
  MIC: 25 µg/mL (≈ 33.6 µM)
[20]; Bact. fragilis SFM2906A, BHI agar, 35°-37° C., 20-24 hours
  MIC: .8 µg/mL (≈ 1.08 µM)
[21]; BHI agar
  MIC: .2 µg/mL (≈ 0.269 µM)
[22]; Staph. aureus ATCC 6538P, BHI agar, 35°-37° C., 20-24 hours
  MIC: .1 µg/mL (≈ 0.134 µM)
[23]; BHI agar
  MIC: .8 µg/mL (≈ 1.08 µM)
[24]; Enterococcus CMX 729G, BHI agar, 35°-37° C., 20-24 hours
  MIC: .12 µg/mL (≈ 0.161 µM)
[25]; Pseudomonas aeruginosa K799/61, BHI agar, 35°-37° C., 20-24 hours
  MIC: 1.56 µg/mL (≈ 2.1 µM)
[26]; Peptostrep. anaerobius ATCC 27337, BHI agar, 35°-37° C., 20-24 hours
  MIC: .05 µg/mL (≈ 0.0672 µM)
[27]; BHI agar
  MIC: .03 µg/mL (≈ 0.0403 µM)
[28]
  MIC: .1 µg/mL (≈ 0.134 µM)
[29]; Bact. SP SFM2975-2, BHI agar, 35°-37° C., 20-24 hours
  MIC: .8 µg/mL (≈ 1.08 µM)
[30]
  MIC: 4 ng/mL (≈ 0.00538 µM)
[31]
  MIC: 3.1 µg/mL (≈ 4.17 µM)
[32]; Cl. perfringens SFBC 2026, BHI agar, 35°-37° C., 20-24 hours
  MIC: .4 µg/mL (≈ 0.538 µM)
[33]
  MIC: 50 µg/mL (≈ 67.2 µM)
[34]; Acinetobacter SP CMX 669, BHI agar, 35°-37° C., 20-24 hours
  MIC: 6.2 µg/mL (≈ 8.33 µM)

## CC[C@H]1OC(=O)[C@H](C)[C@@H](O[C@H]2C[C@@](C)(OC)[C@@H](O)[C@H](C)O2)[C@H](C)[C@@H](O[C@@H]2O[C@H](C)C[C@H](N(C)C)[C@H]2O)[C@](C)(O)C[C@@H](C)C(=O)[C@H](C)[C@@H](O)[C@]1(C)O [Erythromycin A, reference compound]
[1]; Streptococcus pneumoniae, 78008107
  MIC: 128 µg/mL (≈ 174 µM)
[2]; Staph. aureus, mice, oral, dosed 1 and 5 hours post-infection, observed 7 days, read-out: ED-50
  ED50: 141 mg/kg
[2]; sc
  ED50: 21.4 mg/kg
[3]; Staphylococcus aureus, A5278
  MIC: 128 µg/mL (≈ 174 µM)
[4]; Streptococcus pneumoniae, CMX635, BHI agar, read-out: MIC
  MIC: 8 ng/mL (≈ 0.0109 µM)
[5]; Staphylococcus aureus, read-out: MIC
  MIC: 0.12 µg/mL (≈ 0.164 µM)
[6]; Staphylococcus aureus, CMX730A, read-out: MIC
  MIC: 0.06 µg/mL (≈ 0.0818 µM)
[8]; Klebsiella aerogenes, ATCC10348
  MIC: 100 µg/mL (≈ 136 µM)
[9]; Staphylococcus aureus, CYR1150, BHI agar, read-out: MIC
  MIC: 0.12 µg/mL (≈ 0.164 µM)
[10]; Veillonella parvula, ATCC10790
  MIC: 12.5 µg/mL (≈ 17 µM)
[11]; Staphylococcus epidermidis, CMX729H
  MIC: 128 µg/mL (≈ 174 µM)
[12]; Enterococcus, GYR1167
  MIC: 2 µg/mL (≈ 2.73 µM)
[13]; Streptococcus equinus, read-out: MIC
  MIC: 0.01 µg/mL (≈ 0.0136 µM)
[14]
  MIC: 3.1 µg/mL (≈ 4.22 µM)
[15]; Enterococcus, GYR1164
  MIC: 2 µg/mL (≈ 2.73 µM)
[16]; Enterococcus, GYR1166
  MIC: 1 µg/mL (≈ 1.36 µM)
[18]; Staphylococcus aureus, NCTC10649, BHI agar, read-out: MIC
  MIC: 0.12 µg/mL (≈ 0.164 µM)
[19]; Fusobacterium, SPGS10
  MIC: 50 µg/mL (≈ 68.1 µM)
[20]; Bacteroides fragilis, SFM2906A
  MIC: 3.1 µg/mL (≈ 4.22 µM)
[21]; Finegoldia magna, ATCC29328, BHI agar, read-out: MIC
  MIC: 0.4 µg/mL (≈ 0.545 µM)
[22]; Staphylococcus aureus, ATCC6538P
  MIC: 0.39 µg/mL (≈ 0.531 µM)
[23]; Bacteroides fragilis, SFM29757, BHI agar, read-out: MIC
  MIC: 6.3 µg/mL (≈ 8.58 µM)
[24]; Enterococcus, CMX729G
  MIC: 0.1 µg/mL (≈ 0.136 µM)
[25]; Pseudomonas aeruginosa, K799/61
  MIC: 3.1 µg/mL (≈ 4.22 µM)
[26]
  MIC: 0.05 µg/mL (≈ 0.0681 µM)
[27]; Staphylococcus saprophyticus, ATCC15305, BHI agar, read-out: MIC
  MIC: 0.06 µg/mL (≈ 0.0818 µM)
[29]
  MIC: 1.6 µg/mL (≈ 2.18 µM)
[30]; Streptococcus pyogenes, read-out: MIC
  MIC: 4 ng/mL (≈ 0.00545 µM)
[31]; read-out: MIC
  MIC: 6.3 µg/mL (≈ 8.58 µM)
[32]; Clostridium perfringens, SFBC2026
  MIC: 1.6 µg/mL (≈ 2.18 µM)
[34]; Acinetobacter, SPCMX669
  MIC: 12.5 µg/mL (≈ 17 µM)
